{"source": "patent US20080292693A1", "about": "“COMPOSITION AND METHOD FOR TREATING DIGESTIVE SYSTEM DISORDERS” (priority 2007, published 2008)", "origin": "cited, not measured here", "key": {"[1]": {"system": "Crohn's disease", "settings": "double-blind clinical study, daily dose of 1,000 mg"}, "[2]": {"system": "GERD"}}, "data": [{"smiles": "C=C(C)[C@H]1CC=C(C)CC1", "note": "[d-Limonene]", "values": [{"measurement": "symptoms of Crohn's disease", "setting": "[1]", "value": "significantly reduce"}, {"measurement": "symptoms of GERD", "setting": "[2]; double-blind clinical study, daily dose of 1,000 mg", "value": "significantly reduce"}, {"measurement": "responders free of GERD symptoms", "setting": "[2]; one GERD study, for up to six months without taking an additional dose", "value": "fifty"}]}]}
